What is called IC50 is the concentration at which inhibition is half-maximal.

One assay addresses T1, human CD38 (Homo sapiens, UniProt P28907).
T1 construct: purchased Bio-Techne GmbH AVI2404
T1 sequence (P28907 1-300): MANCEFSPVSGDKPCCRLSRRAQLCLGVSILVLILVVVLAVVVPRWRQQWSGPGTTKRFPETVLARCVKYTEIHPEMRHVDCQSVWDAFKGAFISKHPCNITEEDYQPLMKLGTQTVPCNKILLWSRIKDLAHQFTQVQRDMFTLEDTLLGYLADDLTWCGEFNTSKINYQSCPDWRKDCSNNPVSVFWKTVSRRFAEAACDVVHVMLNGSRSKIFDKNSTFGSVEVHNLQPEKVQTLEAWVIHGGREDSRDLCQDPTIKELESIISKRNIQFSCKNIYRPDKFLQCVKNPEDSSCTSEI
Briefly: NAD+ cyclase activity assay with human recombinant CD38 protein (ε-NAD fluorescence). The following applies: 1.9 nM human CD38, substrate ε-NAD, 30 min preincubation, fluorescence 300/410 nm. The assay is classed as biochemical. The procedure:
(§1) Example 4: NAD^+ Cydase Activity Assay with Human or Mouse Recombinant CD38 Protein
(§2) The following assay was used to determine the ability of compounds of the invention to inhibit the hydrolysis of NAD^+ by the human or mouse enzyme, CD38.
(§3) Reaction buffer: 40 mM HEPES/NaOH pH 7.5, 250 mM sucrose, 0.01% Tween
(§4) Final concentrations: 0.6 nM mouse CD38 (4947-AC, Bio-Techne GmbH) 1.9 nM human CD38 (AVI2404, Bio-Techne GmbH)
(§5) Substrate: […] Nicotinamide 1,N6-ethenoadenine dinucleotide (&-NAD)
(§6) Read-out: Fluorescence intensity (extinction 300 nm/emission 410 nm)
(§7) Required reaction buffer, required CD38 concentration in reaction buffer and required e-NAD concentration in reaction buffer were prepared. Thereafter, 8 μL of CD38 in reaction buffer was added to High Control and compound concentration wells in 384 well plate (Corning #4514, 384 well, nonbinding surface, low volume, round bottom) and 8 μL of reaction buffer to Low Control. Compound dilutions were transferred via pintool technology that transfers 42.5 nL compound dilutions (12-point dose-response with factor three dilutions in 100% DMSO) well-to-well. Plate was subsequently shaken for 15 s at 1450 rpm and sealed for incubation for 30 min at room temperature. Thereafter, 2 μL of e-NAD in reaction buffer were added with Integra Voyager. After shaking for 15 s at 1450 rpm, plate was sealed, and assay signal were measured continuously with PHERAstar® fluorescence intensity module (extinction 300 nm/emission 410 nm).
(§8) Dose-response curves were constructed using twelve-pointfactor three dilutions in triplicates per plate. High control (full enzyme activity) was set to assay signal of CD38 and e-NAD in presence of vehicle (DMSO) and Low control (full enzyme inhibition) was set to assay signal of e-NAD and vehicle (DMSO) in absence of CD38. For data analysis, fluorescent signal of traces corresponding to each compound concentration and High and Low control were monitored over time. Each run, High Control (full enzyme activity) was fitted to Linear equation via GraphPad Prism to determine CD38 activity from the slope and determine the time interval of linear phase of reaction to account for minor fluctuations. Thereafter, slopes of all compound concentrations were determined via fitting to same linear equation (GraphPad Prism) over the same time interval as determined for High control. […] Unless otherwise stated, fitting of curves were fixed to 100%-inhibition and unlocked for 0%-inhibition.

In another assay the target is T2, mouse CD38 (Mus musculus, UniProt P56528).
T2 construct: purchased Bio-Techne GmbH 4947-AC
T2 sequence (P56528 1-304): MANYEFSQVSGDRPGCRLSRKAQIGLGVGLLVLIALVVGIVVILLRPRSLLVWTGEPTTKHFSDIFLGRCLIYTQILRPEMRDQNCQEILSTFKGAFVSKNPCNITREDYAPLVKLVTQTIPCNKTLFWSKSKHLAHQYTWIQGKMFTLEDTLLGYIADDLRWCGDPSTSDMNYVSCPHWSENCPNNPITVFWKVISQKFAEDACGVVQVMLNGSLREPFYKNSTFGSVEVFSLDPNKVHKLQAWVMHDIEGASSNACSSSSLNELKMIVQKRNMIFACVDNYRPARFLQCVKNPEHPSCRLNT
The experiment in a line: NAD+ cyclase activity assay with mouse recombinant CD38 protein (ε-NAD fluorescence). The assay is classed as biochemical. The following applies: 0.6 nM mouse CD38, substrate ε-NAD, 30 min preincubation, fluorescence 300/410 nm. The procedure: as §1, §2, §3, §4, §5, §6, §7, §8

Regarding `O=C(NC1CCC(F)(F)CC1)c1ccc2c(c1)-c1cncn1CCO2` [Compound 5A, N-(4,4-Difluorocyclohexyl)-5,6-dihydrobenzo[f]imidazo[1,5-d][1,4]oxazepine-10-carboxamide], the IC50 on human CD38 is under 0.03 µM; at mouse CD38, under 0.001 µM.

As for `O=C(N[C@H]1CCc2ccccc21)c1ccc2c(c1)-c1cncn1CCO2` [Compound 6A, (S)—N-(2,3-Dihydro-1H-inden-1-yl)-5,6-dihydrobenzo[f]imidazo[1,5-d][1,4]oxazepine-10-carboxamide], the IC50 is under 0.03 µM on human CD38 and 0.001 to 0.01 µM at mouse CD38.

Consider `O=C(Nc1ccc2scnc2c1)c1ccc2c(c1)-c1cncn1CCO2` [Compound 7A, N-(Benzo[d]thiazol-5-yl)-5,6-dihydrobenzo[f]imidazo[1,5-d][1,4]oxazepine-10-carboxamide], for which the IC50 is under 0.03 µM at human CD38 and 0.001 to 0.01 µM at mouse CD38.

For `O=C(Nc1ccc2c(c1)OCCO2)c1ccc2c(c1)-c1cncn1CCO2` [Compound 8A, N-(2,3-Dihydrobenzo[b][1,4]dioxin-6-yl)-5,6-dihydrobenzo[f]imidazo[1,5-d][1,4]oxazepine-10-carboxamide], the IC50 at human CD38 was under 0.03 µM; at mouse CD38, 0.001 to 0.01 µM.

In the case of `O=C(Nc1ccc2c(c1)CCO2)c1ccc2c(c1)-c1cncn1CCO2` [Compound 9A, N-(2,3-Dihydrobenzofuran-5-yl)-5,6-dihydrobenzo[f]imidazo[1,5-d][1,4]oxazepine-10-carboxamide], the IC50 is under 0.03 µM at human CD38 and 0.001 to 0.01 µM at mouse CD38.

With `O=C(Nc1ccc(C(F)(F)F)nc1)c1ccc2c(c1)-c1cncn1CCO2` [Compound 10A, N-(6-(Trifluoromethyl)pyridin-3-yl)-5,6-dihydrobenzo[f]imidazo[1,5-d][1,4]oxazepine-10-carboxamide], the IC50 at human CD38 is under 0.03 µM; at mouse CD38, 0.001 to 0.01 µM.

As for `COCCO[C@H]1CC[C@H](NC(=O)c2ccc3[nH]c(=O)c4cncn4c3c2)CC1` [Compound 11A, N-((1r,4r)-4-(2-Methoxyethoxy)cyclohexyl)-4-oxo-4,5-dihydroimidazo[1,5-a]quinoxaline-8-carboxamide], the IC50 was over 1 µM at human CD38 and over 0.1 µM at mouse CD38.

For `O=C(N[C@@H]1CCS(=O)(=O)C1)c1ccc2[nH]c(=O)c3cncn3c2c1` [Compound 12A, (R)—N-(1,1-Dioxidotetrahydrothiophen-3-yl)-4-oxo-4,5-dihydroimidazo[1,5-a]quinoxaline-8-carboxamide], the half-inhibitory concentration (IC50) at human CD38 is over 1 µM; at mouse CD38, over 0.1 µM.

Take `O=C(N[C@@H]1CCCOC1)c1ccc2[nH]c(=O)c3cncn3c2c1` [Compound 13A, (R)-4-Oxo-N-(tetrahydro-2H-pyran-3-yl)-4,5-dihydroimidazo[1,5-a]quinoxaline-8-carboxamide]: the values for the IC50 at human CD38 and on mouse CD38 were over 1 µM and over 0.1 µM, respectively.

Take `O=C(N[C@@H]1CCCOC1)c1ccc2c(c1)-n1ccnc1CCO2` [Compound 14A, (R)—N-(Tetrahydro-2H-pyran-3-yl)-4,5-dihydrobenzo[b]imidazo[1,2-d][1,4]oxazepine-9-carboxamide]: the results for the IC50 on human CD38 and on mouse CD38 were over 1 µM and over 0.1 µM, respectively.

Consider `O=C(N[C@@H]1CCCOC1)c1ccc2c(c1)-n1cncc1CCO2` [Compound 15A, (R)—N-(Tetrahydro-2H-pyran-3-yl)-4,5-dihydrobenzo[b]imidazo[1,5-d][1,4]oxazepine-9-carboxamide], for which the IC50 was over 1 µM on human CD38 and over 0.1 µM at mouse CD38.

In the case of `Cn1c(=O)c2cncn2c2cc(C(=O)N[C@@H]3CCCOC3)ccc21` [Compound 16A, (R)-5-Methyl-4-oxo-N-(tetrahydro-2H-pyran-3-yl)-4,5-dihydroimidazo[1,5-a]quinoxaline-8-carboxamide], the IC50 is over 1 µM at human CD38 and over 0.1 µM at mouse CD38.

Take `CNC(=O)[C@H]1CC[C@H](NC(=O)c2ccc3c(c2)-c2cncn2CCO3)CC1` [Compound 17A, N-((1r,4r)-4-(Methylcarbamoyl)cyclohexyl)-5,6-dihydrobenzo[f]imidazo[1,5-d][1,4]oxazepine-10-carboxamide]: the IC50 on human CD38 is under 0.03 µM; at mouse CD38, under 0.001 µM.
